Test: Amounts of β-lactam antibiotic, β-lactamase inhibitor and aminoglycoside antibiotic in solution over time (reverse-phase LC/HPLC)
Type: physicochemical
Protocol: The amounts of β-lactam antibiotics and β-lactamase inhibitor were determined using C18 reverse-phase LC and UV-VIS detector (Tianjin […] Co., Ltd., analysis method No. HM-K-03). The content of aminoglycoside antibiotics was measured using reverse-phase HPLC and evaporation-light-scattering detector (ELSD detector) (Tianjin […] Co., Ltd., analysis method No. HM-K-08). The amount of antibiotic component at each time point was expressed as a percentage with respect to the amount at the initial time. The relative amount of each antibiotic component in the composition at each time point was expressed as peak area ratio with respect to the corresponding peak area of an external standard.

For CCN[C@@H]1C[C@H](N)[C@@H](O[C@H]2O[C@H](CN)CC[C@H]2N)[C@H](O)[C@H]1O[C@H]1OC[C@](C)(O)[C@H](NC)[C@H]1O [Etimicin], which “amount (percentage of initial amount)” value (in Example 6 solution, pH 6.5, room temperature, 0 h) is on record?
Its value is 108.9%.

What about the “amount (percentage of initial amount)” value (in Example 6 solution, pH 6.5, room temperature, 1 h) of the same molecule?
Its value is 100.2%.

What about the “amount (percentage of initial amount)” value (in Example 6 solution, pH 6.5, room temperature, 2 h) of the same molecule?
The value was 100.5%.

What about the “amount (percentage of initial amount)” value (in Example 6 solution, pH 6.5, room temperature, 4 h) of the same molecule?
Its value is 100.4%.

What about the “amount (percentage of initial amount)” value (in Example 6 solution, pH 6.5, room temperature, 6 h) of the same molecule?
The value was 100.4%.

What about the “amount (percentage of initial amount)” value (in Example 6 solution, pH 6.5, room temperature, 8 h) of the same molecule?
The value was 97.50%.

What about the “amount (percentage of initial amount)” value (in Example 13 solution (Example 12 solution + etimicin sulfate), 0 h) of the same molecule?
The value was 100%.

What about the “amount (percentage of initial amount)” value (in Example 13 solution (Example 12 solution + etimicin sulfate), 1 h) of the same molecule?
Its value is 98.8%.

And the “amount (percentage of initial amount)” value (in Example 13 solution (Example 12 solution + etimicin sulfate), 2 h)?
The value was 97.5%.

What about the “amount (percentage of initial amount)” value (in Example 13 solution (Example 12 solution + etimicin sulfate), 4 h) of the same molecule?
Its value is 98.4%.

What about the “amount (percentage of initial amount)” value (in Example 13 solution (Example 12 solution + etimicin sulfate), 6 h) of the same molecule?
The value was 95.6%.

What about the “amount (percentage of initial amount)” value (in Example 13 solution (Example 12 solution + etimicin sulfate), 8 h) of the same molecule?
Its value is 92.8%.

What about the “amount (percentage of initial amount)” value (in Example 17 solution, pH 6.5, room temperature, 0 h) of the same molecule?
Its value is 100.1%.

What about the “amount (percentage of initial amount)” value (in Example 17 solution, pH 6.5, room temperature, 1 h) of the same molecule?
Its value is 100.4%.

And the “amount (percentage of initial amount)” value (in Example 17 solution, pH 6.5, room temperature, 2 h)?
The value was 99.31%.

What about the “amount (percentage of initial amount)” value (in Example 17 solution, pH 6.5, room temperature, 4 h) of the same molecule?
The value was 99.56%.

What about the “amount (percentage of initial amount)” value (in Example 17 solution, pH 6.5, room temperature, 6 h) of the same molecule?
Its value is 99.61%.

What about the “amount (percentage of initial amount)” value (in Example 17 solution, pH 6.5, room temperature, 8 h) of the same molecule?
Its value is 99.25%.

What about the “amount (percentage of initial amount)” value (in Example 18 solution (2.5% fructose), pH 6.5, room temperature, 0 h) of the same molecule?
Its value is 100.1%.

And the “amount (percentage of initial amount)” value (in Example 18 solution (2.5% fructose), pH 6.5, room temperature, 1 h)?
Its value is 100.6%.

What about the “amount (percentage of initial amount)” value (in Example 18 solution (2.5% fructose), pH 6.5, room temperature, 2 h) of the same molecule?
Its value is 99.79%.

What about the “amount (percentage of initial amount)” value (in Example 23 solution (2.5% fructose), pH 6.75, room temperature, 0 h) of the same molecule?
The value was 104.5%.

And the “amount (percentage of initial amount)” value (in Example 23 solution (2.5% fructose), pH 6.75, room temperature, 1 h)?
The value was 99.13%.

And the “amount (percentage of initial amount)” value (in Example 23 solution (2.5% fructose), pH 6.75, room temperature, 2 h)?
Its value is 103.3%.

And the “amount (percentage of initial amount)” value (in Example 23 solution (2.5% fructose), pH 6.75, room temperature, 4 h)?
The value was 98.75%.

And the “amount (percentage of initial amount)” value (in Example 23 solution (2.5% fructose), pH 6.75, room temperature, 6 h)?
Its value is 101.6%.

And the “amount (percentage of initial amount)” value (in Example 23 solution (2.5% fructose), pH 6.75, room temperature, 8 h)?
Its value is 96.42%.

What about the “amount (percentage of initial amount)” value (in Example 26 solution (2.5% fructose), pH 6.75, room temperature, 0 h) of the same molecule?
The value was 94.69%.

What about the “amount (percentage of initial amount)” value (in Example 26 solution (2.5% fructose), pH 6.75, room temperature, 1 h) of the same molecule?
The value was 102.9%.

What about the “amount (percentage of initial amount)” value (in Example 26 solution (2.5% fructose), pH 6.75, room temperature, 2 h) of the same molecule?
Its value is 109.3%.

What about the “amount (percentage of initial amount)” value (in Example 26 solution (2.5% fructose), pH 6.75, room temperature, 4 h) of the same molecule?
Its value is 108.8%.

And the “amount (percentage of initial amount)” value (in Example 26 solution (2.5% fructose), pH 6.75, room temperature, 6 h)?
The value was 109.6%.

And the “amount (percentage of initial amount)” value (in Example 26 solution (2.5% fructose), pH 6.75, room temperature, 8 h)?
Its value is 105.2%.
